According to US12365696B2, “Small-molecule focal adhesion kinase (FAK) inhibitors” (DANA-FARBER CANCER INSTITUTE, INC., priority 2019, dated 2025):
Read-outs that look alike come from different tables or passages of the source.

Legend:
Assay in all cases: KINOMEscan
Format in all cases: binding
AKT1 = AKT1 (Homo sapiens (Human), UniProt P31749); details: AKT1, 10000 nM; read-out: Percent Control
PHKG1 = PHKG1 (Homo sapiens (Human), UniProt Q16816); details: PHKG1, 10000 nM; read-out: Percent Control
Sequence of PHKG1 (Q16816 whole entry): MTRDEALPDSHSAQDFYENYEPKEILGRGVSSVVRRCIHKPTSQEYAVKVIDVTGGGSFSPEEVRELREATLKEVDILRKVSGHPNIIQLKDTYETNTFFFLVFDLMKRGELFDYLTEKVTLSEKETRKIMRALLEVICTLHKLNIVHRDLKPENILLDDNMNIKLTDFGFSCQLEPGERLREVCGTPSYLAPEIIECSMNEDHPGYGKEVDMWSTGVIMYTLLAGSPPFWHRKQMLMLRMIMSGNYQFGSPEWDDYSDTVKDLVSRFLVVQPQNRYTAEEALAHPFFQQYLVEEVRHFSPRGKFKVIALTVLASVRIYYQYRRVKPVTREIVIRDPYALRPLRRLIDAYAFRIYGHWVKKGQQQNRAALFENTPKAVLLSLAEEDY

PIM1 = PIM1 (Homo sapiens (Human), UniProt P11309); details: PIM1, 10000 nM; read-out: Percent Control
TIE1 = TIE1 (Homo sapiens (Human), UniProt P35590); details: TIE1, 10000 nM; read-out: Percent Control
MST4 = MST4 (Homo sapiens (Human), UniProt Q9P289); details: MST4, 10000 nM; read-out: Percent Control
Sequence of MST4 (Q9P289 whole entry): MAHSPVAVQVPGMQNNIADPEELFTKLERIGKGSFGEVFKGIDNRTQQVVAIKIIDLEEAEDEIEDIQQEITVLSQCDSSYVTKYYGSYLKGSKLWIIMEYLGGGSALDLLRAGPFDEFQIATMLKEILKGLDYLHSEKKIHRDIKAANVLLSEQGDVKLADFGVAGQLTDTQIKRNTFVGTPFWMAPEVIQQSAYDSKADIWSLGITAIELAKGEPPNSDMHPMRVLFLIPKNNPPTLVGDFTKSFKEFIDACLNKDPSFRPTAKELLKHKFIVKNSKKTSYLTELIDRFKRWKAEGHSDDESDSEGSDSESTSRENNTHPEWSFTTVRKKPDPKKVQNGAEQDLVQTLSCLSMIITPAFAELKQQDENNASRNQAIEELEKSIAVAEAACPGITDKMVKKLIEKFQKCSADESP

[1] = molecular target: RSK2(Kin.Dom.2-C-terminal) (Homo sapiens (Human), UniProt P51812); details: 10000 nM, read-out: Percent Control
PIK3C2G = PIK3C2G (Homo sapiens (Human), UniProt O75747); details: 10000 nM, read-out: Percent Control
TRKB = TRKB (Homo sapiens (Human), UniProt Q16620); details: 10000 nM, read-out: Percent Control
GRK4 = GRK4 (Homo sapiens (Human), UniProt P32298); details: GRK4, 10000 nM; read-out: Percent Control
[2] = molecular target: RPS6KA5(Kin.Dom.2-C-terminal) (Homo sapiens (Human), UniProt O75582); details: 10000 nM, read-out: Percent Control
BMPR1A = BMPR1A (Homo sapiens (Human), UniProt P36894); details: 10000 nM, read-out: Percent Control
IRAK4 = IRAK4 (Homo sapiens (Human), UniProt Q9NWZ3); details: IRAK4, 10000 nM; read-out: Percent Control
Sequence of IRAK4 (Q9NWZ3 whole entry): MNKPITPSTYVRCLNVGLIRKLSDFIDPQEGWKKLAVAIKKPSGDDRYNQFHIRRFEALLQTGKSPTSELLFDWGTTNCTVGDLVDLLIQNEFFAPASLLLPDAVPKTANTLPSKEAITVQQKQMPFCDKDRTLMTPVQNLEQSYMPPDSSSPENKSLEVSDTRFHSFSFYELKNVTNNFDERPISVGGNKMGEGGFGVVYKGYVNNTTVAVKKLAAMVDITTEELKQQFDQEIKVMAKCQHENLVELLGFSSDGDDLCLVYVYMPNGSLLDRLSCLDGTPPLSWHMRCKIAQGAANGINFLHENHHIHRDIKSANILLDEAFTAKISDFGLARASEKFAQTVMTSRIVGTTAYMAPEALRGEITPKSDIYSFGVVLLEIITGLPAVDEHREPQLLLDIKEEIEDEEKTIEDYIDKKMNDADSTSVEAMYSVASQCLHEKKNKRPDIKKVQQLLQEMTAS

PIK3CB = PIK3CB (Homo sapiens (Human), UniProt P42338); details: 10000 nM, read-out: Percent Control
DDR1 = DDR1 (Homo sapiens (Human), UniProt Q08345); details: DDR1, 10000 nM; read-out: Percent Control
PIK3CD = PIK3CD (Homo sapiens (Human), UniProt O00329); details: 10000 nM, read-out: Percent Control
Sequence of PIK3CD (O00329 whole entry): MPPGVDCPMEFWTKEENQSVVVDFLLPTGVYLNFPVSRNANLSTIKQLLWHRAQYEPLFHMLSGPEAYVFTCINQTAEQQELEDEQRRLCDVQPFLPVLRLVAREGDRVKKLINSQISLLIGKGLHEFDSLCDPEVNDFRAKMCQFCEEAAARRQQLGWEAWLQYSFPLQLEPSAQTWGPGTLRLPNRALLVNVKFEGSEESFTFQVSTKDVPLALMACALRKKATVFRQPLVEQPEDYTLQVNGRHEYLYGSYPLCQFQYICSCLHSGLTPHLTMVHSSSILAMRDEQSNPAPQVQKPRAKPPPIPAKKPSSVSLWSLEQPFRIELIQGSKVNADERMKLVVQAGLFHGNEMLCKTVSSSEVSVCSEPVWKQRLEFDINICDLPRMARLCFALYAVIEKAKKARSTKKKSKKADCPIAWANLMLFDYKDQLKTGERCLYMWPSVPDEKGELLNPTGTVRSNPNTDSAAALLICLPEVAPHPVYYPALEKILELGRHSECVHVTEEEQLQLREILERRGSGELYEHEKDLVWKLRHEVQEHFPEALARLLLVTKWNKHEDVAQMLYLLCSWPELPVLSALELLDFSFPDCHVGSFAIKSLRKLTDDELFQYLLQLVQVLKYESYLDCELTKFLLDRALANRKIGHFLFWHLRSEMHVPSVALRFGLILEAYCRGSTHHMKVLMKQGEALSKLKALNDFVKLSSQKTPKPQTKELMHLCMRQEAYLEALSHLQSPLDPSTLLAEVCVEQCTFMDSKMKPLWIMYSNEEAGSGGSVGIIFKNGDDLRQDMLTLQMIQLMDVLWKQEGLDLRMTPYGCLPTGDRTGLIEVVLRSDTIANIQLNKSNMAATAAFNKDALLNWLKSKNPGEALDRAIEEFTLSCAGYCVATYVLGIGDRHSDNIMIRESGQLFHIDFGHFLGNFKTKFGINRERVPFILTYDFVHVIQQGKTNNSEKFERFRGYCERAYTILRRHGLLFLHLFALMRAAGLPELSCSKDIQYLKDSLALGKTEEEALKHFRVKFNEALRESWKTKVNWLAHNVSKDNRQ

[3] = molecular target: RSK1(Kin.Dom.2-C-terminal) (Homo sapiens (Human), UniProt Q15418); details: 10000 nM, read-out: Percent Control
SRPK3 = SRPK3 (Homo sapiens (Human), UniProt Q9UPE1); details: SRPK3, 10000 nM; read-out: Percent Control
Sequence of SRPK3 (Q9UPE1 whole entry): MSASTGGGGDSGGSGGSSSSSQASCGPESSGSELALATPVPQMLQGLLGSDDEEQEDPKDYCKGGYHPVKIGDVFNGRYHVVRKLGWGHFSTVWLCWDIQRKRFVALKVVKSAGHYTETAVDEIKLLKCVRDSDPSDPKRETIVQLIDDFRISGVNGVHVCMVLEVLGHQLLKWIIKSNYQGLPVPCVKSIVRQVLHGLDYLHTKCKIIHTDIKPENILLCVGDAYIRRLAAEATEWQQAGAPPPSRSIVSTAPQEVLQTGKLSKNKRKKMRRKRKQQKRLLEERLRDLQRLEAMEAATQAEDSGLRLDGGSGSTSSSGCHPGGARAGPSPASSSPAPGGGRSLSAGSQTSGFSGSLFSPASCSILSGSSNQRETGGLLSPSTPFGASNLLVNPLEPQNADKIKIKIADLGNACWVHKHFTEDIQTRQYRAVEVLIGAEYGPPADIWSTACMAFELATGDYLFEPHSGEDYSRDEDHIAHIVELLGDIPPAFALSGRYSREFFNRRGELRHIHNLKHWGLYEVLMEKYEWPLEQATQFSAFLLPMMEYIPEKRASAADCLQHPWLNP

KIT(D816V) = KIT(D816V) (Homo sapiens (Human), UniProt P10721, D816V); details: 10000 nM, read-out: Percent Control
TLK1 = TLK1 (Homo sapiens (Human), UniProt Q9UKI8); details: TLK1, 10000 nM; read-out: Percent Control
PRKG1 = PRKG1 (Homo sapiens (Human), UniProt Q13976); details: PRKG1, 10000 nM; read-out: Percent Control
KIT(V5S9D, V654A) = KIT(V5S9D, V654A) (Homo sapiens (Human), UniProt P10721, V559D/V654A); details: 10000 nM, read-out: Percent Control
[4] = molecular target: ABL1(F317I)-phosphorylated (Homo sapiens (Human), UniProt P00519, F317I); details: 10000 nM, read-out: Percent Control
GRK7 = GRK7 (Homo sapiens (Human), UniProt Q8WTQ7); details: GRK7, 10000 nM; read-out: Percent Control
TAOK2 = TAOK2 (Homo sapiens (Human), UniProt Q9UL54); details: TAOK2, 10000 nM; read-out: Percent Control
SGK2 = SGK2 (Homo sapiens (Human), UniProt Q9HBY8); details: SGK2, 10000 nM; read-out: Percent Control
MAP3K1 = MAP3K1 (Homo sapiens (Human), UniProt Q13233); details: MAP3K1, 10000 nM; read-out: Percent Control
CSNK1A1 = CSNK1A1 (Homo sapiens (Human), UniProt P48729); details: CSNK1A1, 10000 nM; read-out: Percent Control
Sequence of CSNK1A1 (P48729 whole entry): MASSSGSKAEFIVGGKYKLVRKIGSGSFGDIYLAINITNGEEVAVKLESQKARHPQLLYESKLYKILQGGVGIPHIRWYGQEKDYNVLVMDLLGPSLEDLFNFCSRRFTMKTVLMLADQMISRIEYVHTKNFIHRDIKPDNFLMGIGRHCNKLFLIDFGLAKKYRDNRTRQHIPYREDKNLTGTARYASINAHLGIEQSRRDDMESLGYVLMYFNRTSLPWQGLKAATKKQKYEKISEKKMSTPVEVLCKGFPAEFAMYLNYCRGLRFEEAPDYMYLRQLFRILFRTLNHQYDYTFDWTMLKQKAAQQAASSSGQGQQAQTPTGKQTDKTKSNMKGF

FLT3 = FLT3 (Homo sapiens (Human), UniProt P36888); details: FLT3, 10000 nM; read-out: Percent Control
CSF1R = CSF1R (Homo sapiens (Human), UniProt P07333); details: 10000 nM, read-out: Percent Control
[5] = molecular target: ABL1(M351T)-phosphorylated (Homo sapiens (Human), UniProt P00519, M351T); details: 10000 nM, read-out: Percent Control
MST2 = MST2 (Homo sapiens (Human), UniProt Q13188); details: MST2, 10000 nM; read-out: Percent Control
MST1 = MST1 (Homo sapiens (Human), UniProt Q13043); details: MST1, 10000 nM; read-out: Percent Control
Sequence of MST1 (Q13043 whole entry): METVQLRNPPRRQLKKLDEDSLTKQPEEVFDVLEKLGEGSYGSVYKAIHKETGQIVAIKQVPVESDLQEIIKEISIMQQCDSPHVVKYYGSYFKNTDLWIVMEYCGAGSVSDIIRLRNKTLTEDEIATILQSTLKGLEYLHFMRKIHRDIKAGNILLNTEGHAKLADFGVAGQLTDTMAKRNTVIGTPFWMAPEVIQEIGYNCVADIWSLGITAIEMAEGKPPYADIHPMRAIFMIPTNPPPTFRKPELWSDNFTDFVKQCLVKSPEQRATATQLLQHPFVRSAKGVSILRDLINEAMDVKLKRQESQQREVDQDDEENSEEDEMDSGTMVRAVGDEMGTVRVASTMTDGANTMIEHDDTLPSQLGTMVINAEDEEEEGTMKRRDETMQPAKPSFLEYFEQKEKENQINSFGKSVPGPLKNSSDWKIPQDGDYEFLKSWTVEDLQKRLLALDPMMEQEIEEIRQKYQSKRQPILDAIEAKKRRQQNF

HIPK3 = HIPK3 (Homo sapiens (Human), UniProt Q9H422); details: HIPK3, 10000 nM; read-out: Percent Control
Sequence of HIPK3 (Q9H422 whole entry): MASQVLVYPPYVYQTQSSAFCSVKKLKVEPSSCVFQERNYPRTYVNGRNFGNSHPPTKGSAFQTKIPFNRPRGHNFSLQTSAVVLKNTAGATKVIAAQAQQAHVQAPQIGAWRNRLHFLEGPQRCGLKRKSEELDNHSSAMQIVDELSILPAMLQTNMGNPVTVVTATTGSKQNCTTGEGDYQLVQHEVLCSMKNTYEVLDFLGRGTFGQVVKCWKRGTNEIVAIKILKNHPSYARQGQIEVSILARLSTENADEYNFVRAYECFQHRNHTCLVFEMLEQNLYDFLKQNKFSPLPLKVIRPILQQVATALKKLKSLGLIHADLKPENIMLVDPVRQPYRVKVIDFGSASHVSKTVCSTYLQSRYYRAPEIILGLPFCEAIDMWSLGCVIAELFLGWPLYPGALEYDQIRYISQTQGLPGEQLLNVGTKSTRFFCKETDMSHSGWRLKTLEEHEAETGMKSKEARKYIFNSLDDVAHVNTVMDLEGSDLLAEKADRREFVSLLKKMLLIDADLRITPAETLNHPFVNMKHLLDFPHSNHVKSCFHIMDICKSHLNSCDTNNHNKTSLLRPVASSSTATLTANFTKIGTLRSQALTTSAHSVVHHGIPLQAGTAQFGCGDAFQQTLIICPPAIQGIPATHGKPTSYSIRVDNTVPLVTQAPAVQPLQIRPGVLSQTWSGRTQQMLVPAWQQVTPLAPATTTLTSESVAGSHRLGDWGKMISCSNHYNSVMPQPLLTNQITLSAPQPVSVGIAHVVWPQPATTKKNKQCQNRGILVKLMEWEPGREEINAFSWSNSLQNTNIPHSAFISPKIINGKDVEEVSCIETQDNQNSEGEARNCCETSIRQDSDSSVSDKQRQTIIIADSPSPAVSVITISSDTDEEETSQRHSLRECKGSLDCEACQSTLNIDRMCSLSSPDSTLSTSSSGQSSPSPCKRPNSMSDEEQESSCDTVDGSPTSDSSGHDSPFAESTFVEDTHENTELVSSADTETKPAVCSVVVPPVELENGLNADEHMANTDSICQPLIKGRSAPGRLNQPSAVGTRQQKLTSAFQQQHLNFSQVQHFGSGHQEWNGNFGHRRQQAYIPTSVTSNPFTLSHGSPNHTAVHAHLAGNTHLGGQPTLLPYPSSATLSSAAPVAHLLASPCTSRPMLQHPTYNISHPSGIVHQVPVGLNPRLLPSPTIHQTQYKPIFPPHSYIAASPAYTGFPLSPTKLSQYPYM

For `COc1cc(N2CCC(N3CCN(C)CC3)CC2)ccc1Nc1ncc2c(n1)N(C)c1sc(C)nc1C(=O)N2` [Compound 3, 6-((2-methoxy-4-(4-(4-methylpiperazin-1-yl)piperidin-1-yl)phenyl)amino)-2,4-dimethyl-4,9-dihydro-10H-pyrimido[5,4-b]thiazolo[5,4-e][1,4]diazepin-10-one], the remaining binding at 10 µM (AKT1) was 89%, the remaining binding at 10 µM (PHKG1) was 78% and the remaining binding at 10 µM (PIM1) was 70%. For the same compound, the remaining binding at 10 µM (TIE1) was 80%, the remaining binding at 10 µM (MST4) was 100% and the remaining binding at 10 µM [1] was 100%. The remaining binding at 10 µM (PIK3C2G) was 69%, the remaining binding at 10 µM (TRKB) was 100% and the remaining binding at 10 µM (GRK4) was 72%. The remaining binding at 10 µM [2] was 72%, the remaining binding at 10 µM (BMPR1A) was 81% and the remaining binding at 10 µM (IRAK4) was 100%. It also gave a remaining binding at 10 µM (PIK3CB) of 97%, a remaining binding at 10 µM (DDR1) of 89% and a remaining binding at 10 µM (PIK3CD) of 98%. It also gave a remaining binding at 10 µM [3] of 81%, a remaining binding at 10 µM (SRPK3) of 75% and a remaining binding at 10 µM (KIT(D816V)) of 11%. For the same compound, the remaining binding at 10 µM (TLK1) was 90%, the remaining binding at 10 µM (PRKG1) was 93% and the remaining binding at 10 µM (KIT(V5S9D, V654A); KIT(V5S9D, V654A)) was 108%. The remaining binding at 10 µM [4] was 14%, the remaining binding at 10 µM (GRK7) was 97% and the remaining binding at 10 µM (TAOK2) was 95%. It also gave a remaining binding at 10 µM (SGK2) of 99%, a remaining binding at 10 µM (MAP3K1) of 100% and a remaining binding at 10 µM (CSNK1A1) of 62%. For the same compound, the remaining binding at 10 µM (FLT3) was 100%, the remaining binding at 10 µM (CSF1R) was 36% and the remaining binding at 10 µM [5] was 19%. The remaining binding at 10 µM (MST2) was 100%, the remaining binding at 10 µM (MST1) was 89% and the remaining binding at 10 µM (HIPK3) was 100%.
Work on `COc1cc(N2CCC(N3CCN(C)CC3)CC2)ccc1Nc1ncc2c(n1)N(C)c1sc(C)nc1C(=O)N2C` [Compound 5, 6-((2-methoxy-4-(4-(4-methylpiperazin-1-yl)piperidin-1-yl)phenyl)amino)-2,4,9-trimethyl-4,9-dihydro-10H-pyrimido[5,4-b]thiazolo[5,4-e][1,4]diazepin-10-one] yielded a remaining binding at 10 µM (AKT1) of 100%, a remaining binding at 10 µM (PHKG1) of 84% and a remaining binding at 10 µM (PIM1) of 97%. For the same compound, the remaining binding at 10 µM (TIE1) was 96%, the remaining binding at 10 µM (MST4) was 100% and the remaining binding at 10 µM [1] was 99%. It also gave a remaining binding at 10 µM (PIK3C2G) of 100%, a remaining binding at 10 µM (TRKB) of 100% and a remaining binding at 10 µM (GRK4) of 97%. The remaining binding at 10 µM [2] was 63%, the remaining binding at 10 µM (BMPR1A) was 97% and the remaining binding at 10 µM (IRAK4) was 88%. The remaining binding at 10 µM (PIK3CB) was 87%, the remaining binding at 10 µM (DDR1) was 100% and the remaining binding at 10 µM (PIK3CD) was 92%. The remaining binding at 10 µM [3] was 55%, the remaining binding at 10 µM (SRPK3) was 100% and the remaining binding at 10 µM (KIT(D816V)) was 100%. The remaining binding at 10 µM (TLK1) was 81%, the remaining binding at 10 µM (PRKG1) was 100% and the remaining binding at 10 µM (KIT(V5S9D, V654A); KIT(V559D, V654A)) was 100%. It also gave a remaining binding at 10 µM [4] of 26%, a remaining binding at 10 µM (GRK7) of 100% and a remaining binding at 10 µM (TAOK2) of 93%. For the same compound, the remaining binding at 10 µM (SGK2) was 98%, the remaining binding at 10 µM (MAP3K1) was 100% and the remaining binding at 10 µM (CSNK1A1) was 97%. The remaining binding at 10 µM (FLT3) was 99%, the remaining binding at 10 µM (CSF1R) was 80% and the remaining binding at 10 µM [5] was 95%. It also gave a remaining binding at 10 µM (MST2) of 100%, a remaining binding at 10 µM (MST1) of 100% and a remaining binding at 10 µM (HIPK3) of 100%.
